Calls of active or inactive are those of the source. No cut-off for these calls is given here.
Experiments:
5-8F [1] = assay: Induction of autophagy in human 5-8F cells assessed as increase in LC3I to LC3II conversion at 10 to 30 uM by Western blotting analysis; type: functional, cell-based; details: dose 10-30 µM, time 48.0 hrs
5-8F [2] = assay: Induction of ferroptosis in human 5-8F cells assessed as decrease in GPx4 expression at 10 to 30 uM incubated for 48 hrs in presence of Fer-1 by Western blotting analysis; type: functional, cell-based; details: dose 10-30 µM
5-8F [3] = assay: Antitumor activity against human 5-8F cells xenografted in BALB/c mouse assessed as decrease in tumor weight at 10 to 20 mg/kg, ip administered daily; type: functional, organism-based; details: dose 10-20 mg/kg
5-8F [4] = assay: Antiproliferative activity against human 5-8F cells assessed as decrease in cell viability at 30 uM incubated for 48 hrs in presence of Fer-1; type: functional, cell-based
5-8F [5] = assay: Induction of ferroptosis in human 5-8F cells assessed as appearance of […] at 30 uM incubated for 48 hrs by TEM analysis; type: functional, cell-based
5-8F [6] = assay: Induction of ferroptosis in human 5-8F cells assessed as appearance of small swollen contractile punctate structures at 30 uM incubated for 48 hrs by MitoTracker Red staining based confocal microscopic analysis; type: functional, cell-based
5-8F [7] = assay: Induction of ferroptosis in human 5-8F cells assessed as appearance of vacuoles at 30 uM incubated for 48 hrs by TEM analysis; type: functional, cell-based
5-8F [8] = assay: Induction of ROS generation in human 5-8F cells at 10 to 30 uM after 48 hrs by DCFH-DA staining based flow cytometry analysis; type: functional, cell-based; details: dose 10-30 µM
5-8F [9] = assay: Induction of ferroptosis in human 5-8F cells assessed as appearance of pseudo inclusion bodies at 30 uM incubated for 48 hrs by TEM analysis; type: functional, cell-based
5-8F [10] = assay: Induction of apoptosis in human 5-8F cells assessed as upregulation of cleaved PARP expression at 10 to 30 uM incubated for 48 hrs by Western blotting analysis; type: functional, cell-based; details: dose 10-30 µM
5-8F [11] = assay: Downregulation of p-AKT expression in human 5-8F cells at 10 to 30 uM by Western blotting analysis; type: functional, cell-based; details: dose 10-30 µM
5-8F [12] = assay: Induction of ferroptosis in human 5-8F cells assessed as decrease in GPx4 expression at 10 to 30 uM incubated for 48 hrs in presence of Era by Western blotting analysis; type: functional, cell-based; details: dose 10-30 µM
5-8F [13] = assay: Induction of apoptosis in human 5-8F cells assessed as upregulation of p53 expression at 10 to 30 uM incubated for 48 hrs by Western blotting analysis; type: functional, cell-based; details: dose 10-30 µM
[14] = Toxicity in BALB/c mouse xenografted with human 5-8F cells assessed as change in lung morphology at 10 to 20 mg/kg, ip administered daily by H and E staining based assay; type: organism-based; details: in vivo, dose 10-20 mg/kg
5-8F [15] = assay: Induction of autophagy in human 5-8F cells assessed as appearance of autophagic vacuoles at 30 uM incubated for 48 hrs by TEM analysis; type: functional, cell-based
5-8F [16] = assay: Downregulation of STAT3 phosphorylation in human 5-8F cells at 10 to 30 uM incubated for 48 hrs by Western blotting analysis; type: functional, cell-based; details: dose 10-30 µM
5-8F [17] = assay: Antiproliferative activity against human 5-8F cells assessed as decrease in cell viability at 30 uM incubated for 48 hrs in presence of Era; type: functional, cell-based
[18] = Toxicity in BALB/c mouse xenografted with human 5-8F cells assessed as decrease in body weight at 10 to 20 mg/kg, ip administered daily; type: organism-based; details: in vivo, dose 10-20 mg/kg
5-8F [19] = assay: Induction of apoptosis in human 5-8F cells assessed as downregulation of procaspase-3 expression at 10 to 30 uM incubated for 48 hrs by Western blotting analysis; type: functional, cell-based; details: dose 10-30 µM
5-8F [20] = assay: Antiproliferative activity against human 5-8F cells assessed as reduction in Ki67 expression at 10 to 30 uM by Western blotting analysis; type: functional, cell-based; details: dose 10-30 µM
[21] = Antiproliferative activity against human NP69SV40T cells assessed as reduction in cell viability incubated for 72 hrs by CCK-8 assay; type: toxicity, cell-based
5-8F [22] = assay: Induction of ferroptosis in human 5-8F cells assessed as decrease in GPx4 expression at 10 to 30 uM incubated for 48 hrs by Western blotting analysis; type: functional, cell-based; details: dose 10-30 µM
5-8F [23] = assay: Induction of ferroptosis in human 5-8F cells assessed as appearance of thickened cristae at 30 uM incubated for 48 hrs by TEM analysis; type: functional, cell-based
5-8F [24] = assay: Induction of apoptosis in human 5-8F cells assessed as upregulation of Bax expression at 10 to 30 uM incubated for 48 hrs by Western blotting analysis; type: functional, cell-based; details: dose 10-30 µM
[25] = Toxicity in BALB/c mouse xenografted with human 5-8F cells assessed as change in liver morphology at 10 to 20 mg/kg, ip administered daily by H and E staining based assay; type: organism-based; details: in vivo, dose 10-20 mg/kg
5-8F [26] = assay: Antitumor activity against human 5-8F cells xenografted in BALB/c mouse assessed as decrease in GPx4 expression at 10 to 20 mg/kg, ip administered daily; type: functional, organism-based; details: dose 10-20 mg/kg
5-8F [27] = assay: Inhibition of colony formation in human 5-8F cells at 10 to 30 uM replaced with fresh medium for every 3 days and measured for 10 to 15 days by Giemsa staining based assay; type: functional, cell-based; details: dose 10-30 µM, time 10-15 day
5-8F [28] = assay: Antitumor activity against human 5-8F cells xenografted in BALB/c mouse assessed as tumor growth inhibition at 10 to 20 mg/kg, ip administered daily; type: functional, organism-based; details: dose 10-20 mg/kg
[29] = Toxicity in BALB/c mouse xenografted with human 5-8F cells assessed as change in heart morphology at 10 to 20 mg/kg, ip administered daily by H and E staining based assay; type: organism-based; details: in vivo, dose 10-20 mg/kg
5-8F [30] = assay: Downregulation of p-mTOR expression in human 5-8F cells at 10 to 30 uM by Western blotting analysis; type: functional, cell-based; details: dose 10-30 µM
CAL-27 = assay: Antiproliferative activity against human CAL-27 cells assessed as reduction in cell viability at 5 to 40 uM incubated for 48 hrs by CCK-8 assay; type: functional, cell-based; details: dose 5-40 µM
5-8F [31] = assay: Induction of ROS generation in human 5-8F cells at 30 uM pretreated with NAC for 2 hrs followed by compound addition and measured after 48 hrs by DCFH-DA staining based flow cytometry analysis; type: functional, cell-based
5-8F [32] = assay: Induction of apoptosis in human 5-8F cells assessed as appearance of rounded cells incubated for 48 hrs by microscopic analysis; type: functional, cell-based; details: dose 10-30 µM
5-8F [33] = assay: Induction of ferroptosis in human 5-8F cells assessed as appearance of widened gabs between cristae at 30 uM incubated for 48 hrs by TEM analysis; type: functional, cell-based
5-8F [34] = assay: Induction of ferroptosis in human 5-8F cells assessed as appearance of mitochondrial pyknosis at 30 uM incubated for 48 hrs by TEM analysis; type: functional, cell-based
5-8F [35] = assay: Induction of autophagy in human 5-8F cells assessed as increase in LC3 puncta accumulation at 30 uM incubated for 48 hrs by confocal microscopy analysis; type: functional, cell-based
5-8F [36] = assay: Induction of lipid peroxidation in human 5-8F cells at 30 uM after 48 hrs by flow cytometry analysis; type: functional, cell-based
[37] = Toxicity in BALB/c mouse xenografted with human 5-8F cells assessed as change in kidney morphology at 10 to 20 mg/kg, ip administered daily by H and E staining based assay; type: organism-based; details: in vivo, dose 10-20 mg/kg
5-8F [38] = assay: Downregulation of p-ERK1/2 in human 5-8F cells at 10 to 30 uM by Western blotting analysis; type: functional, cell-based; details: dose 10-30 µM

Cn1cc(/C(=N\O)C(=O)Nc2ccc(Cl)cc2)c2ccccc21
Activity (5-8F [1]): Active | Activity (5-8F [2]): inactive | Activity (5-8F [3]): Active | Activity (5-8F [4]): inactive | Activity (5-8F [5]): Active | Activity (5-8F [6]): Active | Activity (5-8F [7]): Active | Activity (5-8F [8]): Active | Activity (5-8F [9]): Active | Activity (5-8F [10]): Active | Activity (5-8F [11]): Active | Activity (5-8F [12]): Active | Activity (5-8F [13]): Active | Activity [14]: Non-Toxic | Activity (5-8F [15]): Active | Activity (5-8F [16]): Active | Activity (5-8F [17]): Active | Activity [18]: Non-Toxic | Activity (5-8F [19]): Active | Activity (5-8F [20]): Active | IC50 at 72 h [21]: 70.9 µM | Activity (5-8F [22]): Active | Activity (5-8F [23]): Active | Activity (5-8F [24]): Active | Activity [25]: Non-Toxic | Activity (5-8F [26]): Active | inhibition (5-8F [27]): Active | Activity (5-8F [28]): Active | Activity [29]: Non-Toxic | Activity (5-8F [30]): Active | Activity (CAL-27): Active | Activity (5-8F [31]): inactive | Activity (5-8F [32]): Dose-Dependent Effect | Activity (5-8F [33]): Active | Activity (5-8F [34]): Active | Activity (5-8F [35]): Active | Activity (5-8F [36]): Active | Activity [37]: Non-Toxic | Activity (5-8F [38]): Active
